Experimental data from US8952024B2, “Herbicidal pyrimidone derivatives” (E I du Pont de Nemours and Company, priority 2009, dated 2015).

Experiments:
Experiment in all cases: Test C plant response
Assay type in all cases: in vivo
Conditions in all cases: Postemergence, scale 0 to 100
[1] = tested on: bluegrass (annual bluegrass, Poa annua)
Procedure, shortened: (§1)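 Compounds in non-phytotoxic solvent mixture with surfactant. Visual rating versus controls after 14 days in controlled environment, scale 0 (no effect) to 100 (complete control).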

[2] = tested on: lambsquarters (Chenopodium album)
Procedure, shortened: as §1

[3] = tested on: oilseed rape (Brassica napus)
Procedure, shortened: as §1

[4] = tested on: wild mustard (Sinapis arvensis)
Procedure, shortened: as §1

[5] = tested on: spring barley (Hordeum vulgare)
Procedure, shortened: as §1

[6] = tested on: bromegrass (downy bromegrass, Bromus tectorum)
Procedure, shortened: as §1

[7] = tested on: windgrass (Apera spica-venti)
Procedure, shortened: as §1

[8] = tested on: chickweed (common chickweed, Stellaria media)
Procedure, shortened: as §1

[9] = tested on: green foxtail (Setaria viridis)
Procedure, shortened: as §1

[10] = tested on: pigweed (Amaranthus retroflexus)
Procedure, shortened: as §1

[11] = tested on: wild oat (Avena fatua)
Procedure, shortened: as §1

[12] = tested on: kochia (Kochia scoparia)
Procedure, shortened: as §1

Compound: Cc1ccc(-n2c(-c3ccccc3)ncc(C(=O)C3=C(O)CCCC3=O)c2=O)cc1 [Compound 8]
- Plant response rating: Bluegrass ([1]; 31 g ai/ha): 25
- Plant response rating: Bluegrass ([1]; 16 g ai/ha): 5
- Plant response rating: Bluegrass ([1]; 62 g ai/ha): 50
- Plant response rating: Bluegrass ([1]; 125 g ai/ha): 75
- Plant response rating: Lambsquarters ([2]; 31 g ai/ha): 98
- Plant response rating: Lambsquarters ([2]; 16 g ai/ha): 98
- Plant response rating: Lambsquarters ([2]; 62 g ai/ha): 98
- Plant response rating: Lambsquarters ([2]; 125 g ai/ha): 100
- Plant response rating: Oilseed Rape ([3]; 31 g ai/ha): 90
- Plant response rating: Oilseed Rape ([3]; 16 g ai/ha): 80
- Plant response rating: Oilseed Rape ([3]; 62 g ai/ha): 98
- Plant response rating: Oilseed Rape ([3]; 125 g ai/ha): 100
- Plant response rating: Mustard, Wild ([4]; 31 g ai/ha): 95
- Plant response rating: Mustard, Wild ([4]; 62 g ai/ha): 98
- Plant response rating: Mustard, Wild ([4]; 125 g ai/ha): 98
- Plant response rating: Barley, Spring ([5]; 31 g ai/ha): 10
- Plant response rating: Barley, Spring ([5]; 16 g ai/ha): 0
- Plant response rating: Barley, Spring ([5]; 62 g ai/ha): 20
- Plant response rating: Barley, Spring ([5]; 125 g ai/ha): 30
- Plant response rating: Bromegrass, Downy ([6]; 31 g ai/ha): 25
- Plant response rating: Bromegrass, Downy ([6]; 16 g ai/ha): 10
- Plant response rating: Bromegrass, Downy ([6]; 62 g ai/ha): 35
- Plant response rating: Bromegrass, Downy ([6]; 125 g ai/ha): 40
- Plant response rating: Windgrass ([7]; 31 g ai/ha): 10
- Plant response rating: Windgrass ([7]; 16 g ai/ha): 0
- Plant response rating: Windgrass ([7]; 62 g ai/ha): 20
- Plant response rating: Windgrass ([7]; 125 g ai/ha): 60
- Plant response rating: Chickweed ([8]; 31 g ai/ha): 95
- Plant response rating: Chickweed ([8]; 16 g ai/ha): 95
- Plant response rating: Chickweed ([8]; 62 g ai/ha): 95
- Plant response rating: Chickweed ([8]; 125 g ai/ha): 98
- Plant response rating: Foxtail, Green ([9]; 31 g ai/ha): 95
- Plant response rating: Foxtail, Green ([9]; 16 g ai/ha): 95
- Plant response rating: Foxtail, Green ([9]; 62 g ai/ha): 95
- Plant response rating: Foxtail, Green ([9]; 125 g ai/ha): 98
- Plant response rating: Pigweed ([10]; 31 g ai/ha): 95
- Plant response rating: Pigweed ([10]; 16 g ai/ha): 95
- Plant response rating: Pigweed ([10]; 62 g ai/ha): 98
- Plant response rating: Pigweed ([10]; 125 g ai/ha): 98
- Plant response rating: Oat, Wild ([11]; 31 g ai/ha): 20
- Plant response rating: Oat, Wild ([11]; 16 g ai/ha): 20
- Plant response rating: Oat, Wild ([11]; 62 g ai/ha): 30
- Plant response rating: Oat, Wild ([11]; 125 g ai/ha): 30
- Plant response rating: Kochia ([12]; 31 g ai/ha): 70
- Plant response rating: Kochia ([12]; 16 g ai/ha): 65
- Plant response rating: Kochia ([12]; 62 g ai/ha): 85
- Plant response rating: Kochia ([12]; 125 g ai/ha): 90

Compound: 3-cyclohexyl-5-[(2-hydroxy-6-oxo-1-cyclohexen-1-yl)carbonyl]-2-phenyl-4(3H)-pyrimidinone [Compound 128]
- Plant response rating: Bluegrass ([1]; 31 g ai/ha): 35
- Plant response rating: Bluegrass ([1]; 62 g ai/ha): 65
- Plant response rating: Bluegrass ([1]; 125 g ai/ha): 80
- Plant response rating: Lambsquarters ([2]; 31 g ai/ha): 98
- Plant response rating: Lambsquarters ([2]; 16 g ai/ha): 98
- Plant response rating: Lambsquarters ([2]; 62 g ai/ha): 98
- Plant response rating: Lambsquarters ([2]; 125 g ai/ha): 100
- Plant response rating: Oilseed Rape ([3]; 31 g ai/ha): 95
- Plant response rating: Oilseed Rape ([3]; 16 g ai/ha): 90
- Plant response rating: Oilseed Rape ([3]; 62 g ai/ha): 98
- Plant response rating: Oilseed Rape ([3]; 125 g ai/ha): 100
- Plant response rating: Mustard, Wild ([4]; 31 g ai/ha): 98
- Plant response rating: Mustard, Wild ([4]; 16 g ai/ha): 98
- Plant response rating: Mustard, Wild ([4]; 62 g ai/ha): 98
- Plant response rating: Mustard, Wild ([4]; 125 g ai/ha): 100
- Plant response rating: Barley, Spring ([5]; 31 g ai/ha): 15
- Plant response rating: Barley, Spring ([5]; 16 g ai/ha): 0
- Plant response rating: Barley, Spring ([5]; 62 g ai/ha): 20
- Plant response rating: Barley, Spring ([5]; 125 g ai/ha): 30
- Plant response rating: Bromegrass, Downy ([6]; 31 g ai/ha): 50
- Plant response rating: Bromegrass, Downy ([6]; 16 g ai/ha): 30
- Plant response rating: Bromegrass, Downy ([6]; 62 g ai/ha): 65
- Plant response rating: Bromegrass, Downy ([6]; 125 g ai/ha): 65
- Plant response rating: Windgrass ([7]; 31 g ai/ha): 70
- Plant response rating: Windgrass ([7]; 16 g ai/ha): 60
- Plant response rating: Windgrass ([7]; 62 g ai/ha): 85
- Plant response rating: Windgrass ([7]; 125 g ai/ha): 95
- Plant response rating: Chickweed ([8]; 31 g ai/ha): 95
- Plant response rating: Chickweed ([8]; 16 g ai/ha): 95
- Plant response rating: Chickweed ([8]; 62 g ai/ha): 98
- Plant response rating: Chickweed ([8]; 125 g ai/ha): 100
- Plant response rating: Foxtail, Green ([9]; 31 g ai/ha): 95
- Plant response rating: Foxtail, Green ([9]; 16 g ai/ha): 95
- Plant response rating: Foxtail, Green ([9]; 62 g ai/ha): 95
- Plant response rating: Foxtail, Green ([9]; 125 g ai/ha): 95
- Plant response rating: Pigweed ([10]; 31 g ai/ha): 95
- Plant response rating: Pigweed ([10]; 16 g ai/ha): 75
- Plant response rating: Pigweed ([10]; 62 g ai/ha): 95
- Plant response rating: Pigweed ([10]; 125 g ai/ha): 98
- Plant response rating: Oat, Wild ([11]; 31 g ai/ha): 25
- Plant response rating: Oat, Wild ([11]; 62 g ai/ha): 50
- Plant response rating: Oat, Wild ([11]; 125 g ai/ha): 70
- Plant response rating: Kochia ([12]; 31 g ai/ha): 90
- Plant response rating: Kochia ([12]; 16 g ai/ha): 70
- Plant response rating: Kochia ([12]; 62 g ai/ha): 95
- Plant response rating: Kochia ([12]; 125 g ai/ha): 98

Compound: Cc1ccccc1-n1c(-c2ccccc2)ncc(C(=O)C2=C(O)CCCC2=O)c1=O [Compound 12]
- Plant response rating: Bluegrass ([1]; 31 g ai/ha): 20
- Plant response rating: Bluegrass ([1]; 16 g ai/ha): 10
- Plant response rating: Bluegrass ([1]; 62 g ai/ha): 30
- Plant response rating: Bluegrass ([1]; 125 g ai/ha): 40
- Plant response rating: Lambsquarters ([2]; 31 g ai/ha): 80
- Plant response rating: Lambsquarters ([2]; 16 g ai/ha): 70
- Plant response rating: Lambsquarters ([2]; 62 g ai/ha): 80
- Plant response rating: Lambsquarters ([2]; 125 g ai/ha): 95
- Plant response rating: Oilseed Rape ([3]; 31 g ai/ha): 70
- Plant response rating: Oilseed Rape ([3]; 16 g ai/ha): 50
- Plant response rating: Oilseed Rape ([3]; 62 g ai/ha): 80
- Plant response rating: Oilseed Rape ([3]; 125 g ai/ha): 95
- Plant response rating: Mustard, Wild ([4]; 31 g ai/ha): 95
- Plant response rating: Mustard, Wild ([4]; 16 g ai/ha): 80
- Plant response rating: Mustard, Wild ([4]; 62 g ai/ha): 95
- Plant response rating: Mustard, Wild ([4]; 125 g ai/ha): 95
- Plant response rating: Barley, Spring ([5]; 31 g ai/ha): 0
- Plant response rating: Barley, Spring ([5]; 16 g ai/ha): 0
- Plant response rating: Barley, Spring ([5]; 62 g ai/ha): 0
- Plant response rating: Barley, Spring ([5]; 125 g ai/ha): 0
- Plant response rating: Bromegrass, Downy ([6]; 31 g ai/ha): 10
- Plant response rating: Bromegrass, Downy ([6]; 16 g ai/ha): 0
- Plant response rating: Bromegrass, Downy ([6]; 62 g ai/ha): 15
- Plant response rating: Bromegrass, Downy ([6]; 125 g ai/ha): 20
- Plant response rating: Windgrass ([7]; 31 g ai/ha): 20
- Plant response rating: Windgrass ([7]; 16 g ai/ha): 5
- Plant response rating: Windgrass ([7]; 125 g ai/ha): 50
- Plant response rating: Foxtail, Green ([9]; 31 g ai/ha): 60
- Plant response rating: Foxtail, Green ([9]; 16 g ai/ha): 50
- Plant response rating: Foxtail, Green ([9]; 62 g ai/ha): 80
- Plant response rating: Foxtail, Green ([9]; 125 g ai/ha): 90
- Plant response rating: Pigweed ([10]; 31 g ai/ha): 65
- Plant response rating: Pigweed ([10]; 16 g ai/ha): 65
- Plant response rating: Pigweed ([10]; 62 g ai/ha): 75
- Plant response rating: Pigweed ([10]; 125 g ai/ha): 75
- Plant response rating: Oat, Wild ([11]; 31 g ai/ha): 15
- Plant response rating: Oat, Wild ([11]; 16 g ai/ha): 0
- Plant response rating: Oat, Wild ([11]; 62 g ai/ha): 15
- Plant response rating: Oat, Wild ([11]; 125 g ai/ha): 15
- Plant response rating: Kochia ([12]; 31 g ai/ha): 10
- Plant response rating: Kochia ([12]; 16 g ai/ha): 0
- Plant response rating: Kochia ([12]; 62 g ai/ha): 35
- Plant response rating: Kochia ([12]; 125 g ai/ha): 75
